Columns and labels:
testosterone/E2 ratio = assay: Example 3 study in hypogonadal men: testosterone/E2 ratio (ITT); assay type: in vivo, human; conditions: for Testosterone/E2 Ratio % Change from Baseline to Week 2, Max / Testosterone/E2 Ratio % Change from Baseline to Week 2, Mean ± SD / Testosterone/E2 Ratio % Change from Baseline to Week 2, Median / Testosterone/E2 Ratio % Change from Baseline to Week 2, Min: Week 2, (Week minus Baseline) divided by Baseline; for Testosterone/E2 Ratio % Change from Baseline to Week 2, Max / Testosterone/E2 Ratio % Change from Baseline to Week 2, Mean ± SD / Testosterone/E2 Ratio % Change from Baseline to Week 2, Median / Testosterone/E2 Ratio % Change from Baseline to Week 2, Min / Testosterone/E2 Ratio % Change from Baseline to Week 4, Max / Testosterone/E2 Ratio % Change from Baseline to Week 4, Mean ± SD / Testosterone/E2 Ratio % Change from Baseline to Week 4, Median / Testosterone/E2 Ratio % Change from Baseline to Week 4, Min / Testosterone/E2 Ratio % Change from Baseline to Week 6, Max / Testosterone/E2 Ratio % Change from Baseline to Week 6, Mean ± SD / Testosterone/E2 Ratio % Change from Baseline to Week 6, Median / Testosterone/E2 Ratio % Change from Baseline to Week 6, Min: LOCF; for Testosterone/E2 Ratio % Change from Baseline to Week 4, Max / Testosterone/E2 Ratio % Change from Baseline to Week 4, Mean ± SD / Testosterone/E2 Ratio % Change from Baseline to Week 4, Median / Testosterone/E2 Ratio % Change from Baseline to Week 4, Min: Week 4, (Week minus Baseline) divided by Baseline; for Testosterone/E2 Ratio % Change from Baseline to Week 6, Max / Testosterone/E2 Ratio % Change from Baseline to Week 6, Mean ± SD / Testosterone/E2 Ratio % Change from Baseline to Week 6, Median / Testosterone/E2 Ratio % Change from Baseline to Week 6, Min: Week 6, (Week minus Baseline) divided by Baseline
Description: A randomized, double-blind, placebo controlled, parallel-group study of once-daily doses of fispemifene (100, 200, and 300 mg/day) given for 4 weeks was conducted in a population of hypogonadal men. Subjects were required to meet all of the following inclusion criteria at screening and prior to randomization to be eligible for the study:
There were 77 subjects total. The number of subjects randomized to the 100 mg fispemifene, 200 mg fispemifene, 300 mg fispemifene, and placebo arms were 21, 21, 19, and 16, respectively.
Subjects were randomly assigned to one of four treatment groups in a 1:1:1:1 ratio: • Treatment A (100 mg): fispemifene 100 mg+placebo+placebo; • Treatment B (200 mg): fispemifene 100 mg+fispemifene 100 mg+placebo; • Treatment C (300 mg): fispemifene 100 mg+fispemifene 100 mg+fispemifene 100 mg; and • Treatment D (Placebo): placebo+placebo+placebo.
Subjects took one dose (three capsules) of study medication once a day at home for 4 weeks. Capsules were to be taken in the morning immediately after breakfast, with the exception of the morning of the Week 4 visit. Capsules were not to be taken on the morning of the Week 4 visit because trough plasma levels of fispemifene were determined by a blood sample taken at this visit. Each subject was randomly assigned to treatment with one of the 3 different dose regimens of fispemifene or placebo vehicle. Each subject received a 4 week supply of study drug.
Blood samples were taken from the subjects within 1 week prior to dosing with study drug to establish baseline values; after 2 and 4 weeks of randomization; and 2 weeks after the last dose of study drug. Serum was prepared from those samples and used to determine the mean % change from baseline in total testosterone, free testosterone, SHBG (sex hormone-binding globulin), DHT (dihydrotestosterone), E2 (estradiol), LH (luteinizing hormone), FSH (follicle stimulating hormone), and inhibin B.
3. Percent change from baseline in SHBG, DHT, E2, LH, FSH, inhibin B, and testosterone/E2 ratio at Weeks 2, 4, and 6.

serum testosterone = assay: Phase I repeated dose study 101-50202: serum total testosterone; assay type: in vivo, human; conditions: for increase of the mean serum total testosterone compared to baseline: 28 days, healthy men
Excerpt: Fispemifene has been studied in two phase I studies in humans—in a single dose and a repeated dose study. Effect of fispemifene on hormone levels was one main focus of the repeated dose study. The phase I repeated dose study (number 101-50202) was a randomized, double-blind, placebo-controlled 28-day dose-escalation study performed in 31 healthy, elderly men, aged 50-68 years. The main objective of the study was to investigate the tolerability, safety and pharmacokinetics of fispemifene after repeated oral doses, but the study focused also on the effects of fispemifene on serum free and total testosterone, estradiol, and other relevant hormones. The fispemifene doses 10, 30, 100 and 300 mg per day and placebo were administered once every morning as capsules containing 10 mg or 100 mg of fispemifene, or placebo.
The variables for safety and tolerability were adverse events, vital signs, 12-lead ECG, clinical laboratory evaluations, physical examination, ultrasound examinations (mammary glands) and inhibin B. For pharmacokinetics, the concentrations of fispemifene and its metabolite(s) were to be evaluated. For pharmacodynamics, serum concentrations of FSH, LH, estradiol, testosterone, SHBG, prolactin, aldosterone, cortisol and TSH before and during treatment were measured and compared with the concentrations in the placebo-group.

## OCCOCCOc1ccc(/C(=C(/CCCl)c2ccccc2)c2ccccc2)cc1 [Fispemifene, (Z)-2-{2-[4-(4-Chloro-1,2-diphenylbut-1-enyl)phenoxy]ethoxy}ethanol]
testosterone/E2 ratio; 100 mg
  Testosterone/E2 Ratio % Change from Baseline to Week 2, Max: 1.21
  Testosterone/E2 Ratio % Change from Baseline to Week 2, Mean ± SD: 0.21 ± 0.457
  Testosterone/E2 Ratio % Change from Baseline to Week 2, Median: 0.18
  Testosterone/E2 Ratio % Change from Baseline to Week 2, Min: −0.39
  Testosterone/E2 Ratio % Change from Baseline to Week 4, Max: 1.57
  Testosterone/E2 Ratio % Change from Baseline to Week 4, Mean ± SD: 0.22 ± 0.482
  Testosterone/E2 Ratio % Change from Baseline to Week 4, Median: 0.13
  Testosterone/E2 Ratio % Change from Baseline to Week 4, Min: −0.29
  Testosterone/E2 Ratio % Change from Baseline to Week 6, Max: 0.411
  Testosterone/E2 Ratio % Change from Baseline to Week 6, Mean ± SD: −0.002 ± 0.1993
  Testosterone/E2 Ratio % Change from Baseline to Week 6, Median: 0.029
  Testosterone/E2 Ratio % Change from Baseline to Week 6, Min: −0.337
  Testosterone/E2 Ratio Actual Value at Baseline (Visit 2), Max: 27.0
  Testosterone/E2 Ratio Actual Value at Baseline (Visit 2), Mean ± SD: 15.2 ± 6.39
  Testosterone/E2 Ratio Actual Value at Baseline (Visit 2), Median: 14.7
  Testosterone/E2 Ratio Actual Value at Baseline (Visit 2), Min: 5.2
testosterone/E2 ratio; 200 mg
  Testosterone/E2 Ratio % Change from Baseline to Week 2, Max: 0.93
  Testosterone/E2 Ratio % Change from Baseline to Week 2, Mean ± SD: 0.25 ± 0.418
  Testosterone/E2 Ratio % Change from Baseline to Week 2, Median: 0.19
  Testosterone/E2 Ratio % Change from Baseline to Week 2, Min: −0.29
  Testosterone/E2 Ratio % Change from Baseline to Week 4, Max: 1.08
  Testosterone/E2 Ratio % Change from Baseline to Week 4, Mean ± SD: 0.18 ± 0.387
  Testosterone/E2 Ratio % Change from Baseline to Week 4, Median: 0.17
  Testosterone/E2 Ratio % Change from Baseline to Week 4, Min: −0.34
  Testosterone/E2 Ratio % Change from Baseline to Week 6, Max: 0.937
  Testosterone/E2 Ratio % Change from Baseline to Week 6, Mean ± SD: 0.019 ± 0.3760
  Testosterone/E2 Ratio % Change from Baseline to Week 6, Median: −0.030
  Testosterone/E2 Ratio % Change from Baseline to Week 6, Min: −0.517
  Testosterone/E2 Ratio Actual Value at Baseline (Visit 2), Max: 30.2
  Testosterone/E2 Ratio Actual Value at Baseline (Visit 2), Mean ± SD: 14.2 ± 5.73
  Testosterone/E2 Ratio Actual Value at Baseline (Visit 2), Median: 14.9
  Testosterone/E2 Ratio Actual Value at Baseline (Visit 2), Min: 6.3
testosterone/E2 ratio; 300 mg
  Testosterone/E2 Ratio % Change from Baseline to Week 2, Max: 1.43
  Testosterone/E2 Ratio % Change from Baseline to Week 2, Mean ± SD: 0.21 ± 0.372
  Testosterone/E2 Ratio % Change from Baseline to Week 2, Median: 0.15
  Testosterone/E2 Ratio % Change from Baseline to Week 2, Min: −0.24
  Testosterone/E2 Ratio % Change from Baseline to Week 4, Max: 1.12
  Testosterone/E2 Ratio % Change from Baseline to Week 4, Mean ± SD: 0.33 ± 0.428
  Testosterone/E2 Ratio % Change from Baseline to Week 4, Median: 0.36
  Testosterone/E2 Ratio % Change from Baseline to Week 4, Min: −0.53
  Testosterone/E2 Ratio % Change from Baseline to Week 6, Max: 0.65
  Testosterone/E2 Ratio % Change from Baseline to Week 6, Mean ± SD: 0.12 ± 0.250
  Testosterone/E2 Ratio % Change from Baseline to Week 6, Median: 0.11
  Testosterone/E2 Ratio % Change from Baseline to Week 6, Min: −0.29
  Testosterone/E2 Ratio Actual Value at Baseline (Visit 2), Max: 23.1
  Testosterone/E2 Ratio Actual Value at Baseline (Visit 2), Mean ± SD: 11.5 ± 4.87
  Testosterone/E2 Ratio Actual Value at Baseline (Visit 2), Median: 10.6
  Testosterone/E2 Ratio Actual Value at Baseline (Visit 2), Min: 1.7
Serum testosterone; 10 mg/day, Baseline
  Serum total testosterone, Mean: 19.33 nmol/L
Serum testosterone; 10 mg/day, Day 8
  Serum total testosterone, Mean: 19.83 nmol/L
Serum testosterone; 10 mg/day, Day 15
  Serum total testosterone, Mean: 20.50 nmol/L
Serum testosterone; 10 mg/day, Day 22
  Serum total testosterone, Mean: 22.00 nmol/L
Serum testosterone; 10 mg/day, Day 28
  Serum total testosterone, Mean: 17.40 nmol/L
Serum testosterone; 30 mg/day, Baseline
  Serum total testosterone, Mean: 15.00 nmol/L
Serum testosterone; 30 mg/day, Day 15
  Serum total testosterone, Mean: 15.00 nmol/L
Serum testosterone; 30 mg/day, Day 22
  Serum total testosterone, Mean: 15.80 nmol/L
Serum testosterone; 30 mg/day, Day 28
  Serum total testosterone, Mean: 14.80 nmol/L
Serum testosterone; 100 mg and 300 mg
  testosterone compared with placebo: increased statistically significantly
Serum testosterone; 100 mg or 300 mg, 28-day treatment period
  subjects in whom increase in testosterone serum concentration was seen: all the subjects
Serum testosterone; 100 mg/day
  increase of the mean serum total testosterone compared to baseline: 32%
Serum testosterone; 100 mg/day, listed as fispemifene
  increase of the mean serum total testosterone compared to baseline: about 32%
Serum testosterone; 100 mg/day, Baseline
  Serum total testosterone, Mean: 14.27 nmol/L
Serum testosterone; 100 mg/day, Day 8
  Serum total testosterone, Mean: 18.67 nmol/L
Serum testosterone; 100 mg/day, Day 15
  Serum total testosterone, Mean: 19.00 nmol/L
Serum testosterone; 100 mg/day, Day 22
  Serum total testosterone, Mean: 17.83 nmol/L
Serum testosterone; 100 mg/day, Day 28
  Serum total testosterone, Mean: 18.83 nmol/L
Serum testosterone; 300 mg/day (highest dose)
  men with serum testosterone level above the upper limit of normal range (33 nmol/L) during treatment: Two out of six
Serum testosterone; 300 mg/day
  increase of the mean serum total testosterone compared to baseline: 75%
Serum testosterone; 300 mg/day, listed as fispemifene
  increase of the mean serum total testosterone compared to baseline: about 75%
Serum testosterone; 300 mg/day, Baseline
  Serum total testosterone, Mean: 15.67 nmol/L
Serum testosterone; 300 mg/day, Day 8
  Serum total testosterone, Mean: 23.17 nmol/L
Serum testosterone; 300 mg/day, Day 15
  Serum total testosterone, Mean: 27.00 nmol/L
Serum testosterone; 300 mg/day, Day 22
  Serum total testosterone, Mean: 27.83 nmol/L
Serum testosterone; 300 mg/day, Day 28
  Serum total testosterone, Mean: 27.50 nmol/L
Serum testosterone; during the 28 days of treatment
  effect on serum concentration of testosterone: increased
Serum testosterone; healthy older men, within 28 days from the start of treatment
  effect on serum testosterone concentration: clinically and statistically significant and dose dependent increase
